Test results from paper PMC9289467, “A Novel Multifunctional 5,6-Dimethoxy-Indanone-Chalcone-Carbamate Hybrids Alleviates Cognitive Decline in Alzheimer’s Disease by Dual Inhibition of Acetylcholinesterase and Inflammation” (Frontiers in Aging Neuroscience, 2022).

Tests used:
CD11c within microglia = assay: CD11c and Iba1 co-immunostaining (DAM marker); assay type: in vivo; conditions: AP5-treated vs APP/PS1 mice
Method: (§1) APP/PS1 mice of ages 6 months were randomly divided into vehicle (APP/PS1, n = 10) and treatment groups (AP5, n = 10), which were intragastrically administered with AP5 (40 mg/kg) once daily for consecutive 5 months. AP5 was dissolved in distilled water containing 1% sodium carboxymethyl cellulose.
(§2) The fixed hemibrains were paraffin-embedded and sectioned in the coronal plane. The slices were deparaffinized with xylene and rehydrated by a series of gradient alcohols. Antigen retrieval through microwave boiling was performed with 10 mM sodium citrate solution at pH 6.0. The slices were cooled down to room temperature and then rinsed in PBS solution. Then the slices were incubated in 10% goat serum blocking solution for 1 h followed by primary antibodies overnight at 4°C. The next day, the slides were labeled with biotinylated or fluorescent secondary antibodies. Slices were washed three times with PBS before being mounted. Images were captured using a SpinSR10 scanner (Olympus, Tokyo, Japan). […]
(§3) Cambridge, UK) or anti-GFAP (1:100, bs-0199R, Bioss) at4 °C. After being washed with PBS, slides were treated with a biotinylated secondary antibody for 30 min and with streptavidin-peroxidase complex for another 30 min at 37°C. Immunostaining was visualized with 3,3′-diaminobenzidine (DAB, ZL1-9018, Zhongshan Jinqiao, Beijing, China ).The images were acquired using a Nikon microscope (Nikon, […]

[1] = biological target: T1, pre-formed Aβ42-AChE fibrils complex (Homo sapiens, UniProt P22303); assay: Disaggregation of pre-formed Aβ42-AChE fibrils (ThT); assay type: biochemical; conditions: Aβ42 pre-aggregated with AChE for 2 days before co-incubation with AP5
T1 construct: purchased Roche (AChE); Aladdin (Aβ42) R005282 (AChE); A118755 (Aβ42)
Method: The effects of AP5 on Aβ fibril formation and pre-formed Aβ fibrils disaggregation were determined using a previously described method of Thioflavin T (ThT, T3516, Sigma Aldrich, St. Louis, MO, United States) fluorometry ([Jan et al., 2010]).
Supplementary materials and methods … ...1 […]
Supplementary Figure 1 … .....7
Supplementary Figure 2 … .....7
Supplementary materials and methods
Prepations ofspecimen for pharmacokinetics analysis
24 h afterdosing. Brains were collected at0, 0.25, 0.5,2, 4,8 and 24 h after administration.Plasma extractions were performed by adding 90 μL methanol and 2 μL internalstandard letrozole (500 ng/mL) to a30 µL plasma sample. […]
Then 90 μL methanol and 2 μL letrozolewere added to 30 µl brainhomogenates. The samples were vortexed for 3 min and centrifuged 15 min at25,000 g.The plasma and brainhomogenate were analyzed by UPLC-TSQ/MS (Thermo Fisher Scientific, Waltham, MA, USA). […]
To study the kinetics of Aβ-AChE fibril complex formation, 10 μM Aβ was mixed with AChE (R005282, Roche, Basel, Switzerland) and different concentrations AP5 and incubated with 10 μM ThT and 50 mM glycine-NaOH (pH 8.5) at 37°C, the ThT fluorescence was continually measured for 24 h at 30 min intervals. […] Fluorescence emission at485 nm was measured on a Spectra MAX GeminiXS fluorometerat an excitation wavelength of 450 nm. […]

Aβ = assay: MOAB-2 immunofluorescence of Aβ, APP/PS1 mice; assay type: in vivo; conditions: cortex and hippocampus; AP5 40 mg/kg once daily 5 months
Method: as §1, §2, §3

T1 sequence (P22303 32-614, one chain of several): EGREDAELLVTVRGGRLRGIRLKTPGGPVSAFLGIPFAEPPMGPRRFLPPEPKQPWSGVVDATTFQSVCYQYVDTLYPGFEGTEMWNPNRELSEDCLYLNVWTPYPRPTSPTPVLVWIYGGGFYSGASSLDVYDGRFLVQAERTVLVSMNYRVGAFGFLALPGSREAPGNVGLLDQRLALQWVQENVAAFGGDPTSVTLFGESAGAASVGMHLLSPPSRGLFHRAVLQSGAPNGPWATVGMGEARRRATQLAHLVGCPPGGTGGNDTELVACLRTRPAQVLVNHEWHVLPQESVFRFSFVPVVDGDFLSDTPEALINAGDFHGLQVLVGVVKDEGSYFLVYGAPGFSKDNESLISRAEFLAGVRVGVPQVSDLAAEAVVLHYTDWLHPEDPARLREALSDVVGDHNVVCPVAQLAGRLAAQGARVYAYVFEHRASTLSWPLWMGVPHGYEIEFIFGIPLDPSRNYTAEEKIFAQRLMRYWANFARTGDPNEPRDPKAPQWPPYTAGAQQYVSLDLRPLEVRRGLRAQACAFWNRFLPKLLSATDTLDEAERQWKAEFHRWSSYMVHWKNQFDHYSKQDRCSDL

## CCN(C)C(=O)Oc1cccc(/C=C2\Cc3cc(OC)c(OC)cc3C2=O)c1 [AP5, (E)-3-((5,6-dimethoxy-1-oxo-1,3-dihydro-2H-inden-2-ylidene)-methyl)phenylethyl(methyl)carbamate]
CD11c within microglia
  CD11c-positive area within the activated microglia: significantly elevated
[1]
  ThT fluorescence intensity, disaggregation of pre-formed Aβ42 fibrils: marked decline of ThT fluorescence intensity
Aβ
  area occupied by unaggregated and aggregated Aβ (MOAB-2): also decreased
